# Measurements from article PMC7064328 (Environmental Health Perspectives, 2020).
# Where “and” joins values, the source holds several entries; their conditions need not be identical. Equal entries are not always repeated.
# Assays:
# Type in all cases: in vivo, mouse (CD-1)
# Pregnant CD-1 mice = assay: Maternal indices: dam body weight, gestational weight gain, liver and kidney weight after daily oral gavage E1.5 to E11.5 or E17.5; details: for E0.5 weight: baseline
# Description: Naïve female CD-1 mice between 7.5 and 15.5 wk of age from the NIEHS colony were bred in-house on a single night, and copulatory plug–positive females were identified on embryonic day (E) 0.5. Pregnant dams were singly housed in ventilated polypropylene cages and received nesting materials, National Institutes of Health (NIH)-31 diet (Zeigler Bros., Inc.) and reverse osmosis deionized (RODI) water ad libitum. Animals were housed in humidity- and temperature-controlled rooms with 25°C and 45–60% average humidity and standard 12-h light cycles. All animal procedures were approved by the NIEHS Animal Care and Use Committee (ASP #2017-0022).
# PFOA and GenX dosing solutions were prepared in RODI water and administered to mice once daily via oral gavage. Daily doses were administered between 0700 and 0800 hours and adjusted to the BW of the mouse based on the previous day’s weight at a volume of 0.01mL/g BW. […] The dose of 1mg/kg BW/d PFOA, used in the mouse developmental toxicity study of [Lau et al. 2006], provided a lowest effect dose that was used to set the reference dose within the U.S. EPA’s drinking water lifetime health advisory level (HAL) of 70 ppt PFOA ([U.S. EPA 2016]).
# This experiment was conducted over two blocks (Block 1 and Block 2) to achieve a total of n=11–13 litters per treatment group and sacrifice time point (E11.5 and E17.5). The experimental design of the second block was identical to the first block of the study, and experimental methods were similar but expanded upon to include more rigorous and detailed measurements. Copulatory plug–positive mice (E0.5) were weighed to obtain a baseline BW and placed into one of five groups. Once all mice were assigned to groups, mean BWs were calculated, and a few animals were reassigned so that mean BWs in each group were similar. This was done to avoid confounding effects of baseline BW. Treatment groups were then randomly assigned a color by using a random sequence generator. Experimenters and dosing technicians were blinded to the treatment group to which the color groups corresponded throughout the duration of the study, including at necropsy. […] Pregnant dams were dosed via oral gavage from E1.5 to E11.5 or from E1.5 to E17.5. […] The E11.5 early-gestation time point was selected because it overlaps a critical period of placental development in the mouse where the placenta undergoes vascularization with the uterine wall and chorioallantoic branching of vessels begins ([Watson and Cross 2005]). The E17.5 late-gestation time point was selected so that embryo weight changes that may be related to treatment would be evident.
# On the day of necropsy, dams received daily oral gavage between 0700 and 0800 hours and were weighed and then euthanized humanely by swift decapitation, and serum was collected. In Block 1, necropsies were completed from 0800 to 1600 hours, and in Block 2, necropsies were completed from 0800 to 1200 hours. Serum from dams euthanized in Block 1 was snap frozen for internal dosimetry analyses. Serum and urine from Block 2 dams were reserved for clinical chemistry analyses. In both blocks, the uterus was removed, and total implantation sites were counted based on gross observation of an implantation nodule along the uterine horn. Viable embryos, nonviable embryos, and sites of resorption were counted based on gross observation. Embryos were considered viable if they were properly formed, were not pale in color, and were of similar size to neighboring embryos. Embryos that were poorly formed and pale in color (without heartbeat) were considered nonviable. Sites of resorption were defined as a dark red–appearing clot-like nodule apparent on gross observation.
# From each uterus, first, viable embryos and their matched placentas were collected in succession within a horn and immediately snap frozen ( n=2–5 per litter ), and subsequent embryos were collected for growth measurements ( n=2–11 per litter ). […]
# maternal liver = assay: Transmission electron microscopy of dam liver; details: E17.5
# Source text: Block 2 dam liver portions stored in McDowell and Trump’s fixative ([McDowell and Trump 1976]) were processed using a Leica EM TP processor. Briefly, samples were rinsed with buffer, postfixed in 1% osmium tetroxide in 0.1-M phosphate buffer, rinsed in distilled water, dehydrated, and embedded in Ply/Bed® 812 (Polysciences, Inc.) epoxide resin. Blocks were trimmed, and semithin sections ( ∼0.5μm ) were stained with 1% toluidine blue (Poly-scientific R&D Corp.) O in 1% sodium borate to ascertain areas of interest. Ultrathin sections ( […] ) were cut from areas of interest and placed on 200-mesh copper grids and stained with uranyl acetate and lead citrate, and digital images were captured using an Orius® SC1000 side mount camera (Gatan) attached to a Techani T12 transmission electron microscope (TEM) (FEI Company). In general, peroxisomes were smaller than mitochondria and round with a dark, electron-dense, granular matrix and surrounded by a single membrane. […] Samples were analyzed by R.D.K., Ph.D.
# [1] = Internal dosimetry of PFOA and GenX in maternal serum, maternal liver, amniotic fluid and whole embryos (UPLC-MS/MS)
# Description: Solid tissues were homogenized in RODI water at a ratio of approximately 1:3 tissue mass (milligrams) to liquid volume (microliters). Maternal serum, amniotic fluid, and tissue homogenates ( 25μL ) were spiked with internal standard suspended in 0.1M formic acid in a denaturation step, followed by a subsequent protein crash using ice-cold acetonitrile. Samples were vortex mixed after addition of formic acid and acetonitrile and then centrifuged at 10,000×g for 5 min. Extract supernatants were separated using a Waters ACQUITY UPLC® (Waters Corporation) fitted with a Waters ACQUITY UPLC® BEH C18 Column ( 130Å; 1.7μm; 2.1mm×50mm ). Detection was performed using a Waters Quattro Premier™ XE tandem quadrupole mass spectrometer in negative ionization mode.
compound,measurement,setting,value
"N.O=C(O)C(F)(OC(F)(F)C(F)(F)C(F)(F)F)C(F)(F)F (stereo not shown) [GenX, ammonium 2,3,3,3-tetrafluoro-2-(heptafluoropropoxy)propanoate]",Kidney weight,"Pregnant CD-1 mice; E11.5, 2 mg/kg/d",0.22 ± 0.02 g
same,Liver weight,"Pregnant CD-1 mice; E11.5, 2 mg/kg/d",3.1 ± 0.2 g
same,Weight at necropsy,"Pregnant CD-1 mice; E11.5, 2 mg/kg/d",38.3 ± 3.2 g
same,Weight at necropsy (% change from E0.5),"Pregnant CD-1 mice; E11.5, 2 mg/kg/d",28.9±5.4%
same,Kidney weight,"Pregnant CD-1 mice; E11.5, 10 mg/kg/d",0.23 ± 0.06 g
same,Liver weight,"Pregnant CD-1 mice; E11.5, 10 mg/kg/d",4.2 ± 0.5 g
same,Weight at necropsy,"Pregnant CD-1 mice; E11.5, 10 mg/kg/d",40.0 ± 2.5 g
same,Weight at necropsy (% change from E0.5),"Pregnant CD-1 mice; E11.5, 10 mg/kg/d",32.3±9.6 %
same,E0.5 weight,"Pregnant CD-1 mice; E11.5 group, 2 mg/kg/d",29.7 ± 2.2 g
same,E0.5 weight,"Pregnant CD-1 mice; E11.5 group, 10 mg/kg/d",30.7 ± 2.5 g
same,Kidney weight,"Pregnant CD-1 mice; E17.5, 2 mg/kg/d",0.21 ± 0.02 g
same,Liver weight,"Pregnant CD-1 mice; E17.5, 2 mg/kg/d",3.5 ± 0.5 g
same,Weight at necropsy,"Pregnant CD-1 mice; E17.5, 2 mg/kg/d",55.4 ± 6.5 g
same,Weight at necropsy (% change from E0.5),"Pregnant CD-1 mice; E17.5, 2 mg/kg/d",97.3±15.2%
same,Kidney weight,"Pregnant CD-1 mice; E17.5, 10 mg/kg/d",0.25 ± 0.02 g
same,Liver weight,"Pregnant CD-1 mice; E17.5, 10 mg/kg/d",4.6 ± 0.4 g
same,Weight at necropsy,"Pregnant CD-1 mice; E17.5, 10 mg/kg/d",56.7 ± 5.5 g
same,Weight at necropsy (% change from E0.5),"Pregnant CD-1 mice; E17.5, 10 mg/kg/d",98.5±15.7%
same,E0.5 weight,"Pregnant CD-1 mice; E17.5 group, 2 mg/kg/d",28.2 ± 3.5 g
same,E0.5 weight,"Pregnant CD-1 mice; E17.5 group, 10 mg/kg/d",28.7 ± 3.6 g
same,Liver ultrastructure (TEM),maternal liver; 2 mg/kg/d,abnormal ultrastructure
same,Liver ultrastructure (TEM),maternal liver; 10 mg/kg/d,abnormal ultrastructure
same,"Serum concentration, pregnant mice",[1]; 2 mg/kg/d,~33000 ng/mL
same,Dam serum concentration,[1]; 10 mg/kg/d throughout gestation,~100 µg/mL
same,Amniotic fluid concentration,"[1]; E11.5, 2 mg/kg/d",3.6 ± 2.2 µg/mL
same,Maternal liver concentration,"[1]; E11.5, 2 mg/kg/d",5.45 ± 3.43 µg/g
same,Maternal serum concentration,"[1]; E11.5, 2 mg/kg/d",33.5 ± 15.7 µg/mL
same,Whole embryo concentration,"[1]; E11.5, 2 mg/kg/d",0.91 ± 0.22 µg/g and 0.91 ± 0.2 µg/g
same,GenX accumulation in dam serum higher than accumulation of PFOA,"[1]; E11.5, 2 mg/kg/d GenX vs 1 mg/kg/d PFOA",32%
same,Amniotic fluid concentration,"[1]; E11.5, 10 mg/kg/d",9.3 ± 2.0 µg/mL
same,Maternal liver concentration,"[1]; E11.5, 10 mg/kg/d",19.9 ± 4.2 µg/g
same,Maternal serum concentration,"[1]; E11.5, 10 mg/kg/d",118.1 ± 10.4 µg/mL
same,Whole embryo concentration,"[1]; E11.5, 10 mg/kg/d",3.21 ± 0.51 µg/g and 3.21 ± 0.5 µg/g
same,Female embryo concentration,"[1]; E17.5, 2 mg/kg/d",3.39 ± 1.44 µg/g
same,Male embryo concentration,"[1]; E17.5, 2 mg/kg/d",3.04 ± 1.27 µg/g
same,Maternal liver concentration,"[1]; E17.5, 2 mg/kg/d",4.56 ± 2.80 µg/g
same,Maternal serum concentration,"[1]; E17.5, 2 mg/kg/d",22.9 ± 17.1 µg/mL
same,Whole embryo concentration,"[1]; E17.5, 2 mg/kg/d",3.23 ± 1.28 µg/g
same,Female embryo concentration,"[1]; E17.5, 10 mg/kg/d",6.89 ± 2.72 µg/g
same,Male embryo concentration,"[1]; E17.5, 10 mg/kg/d",7.55 ± 3.35 µg/g
same,Maternal liver concentration,"[1]; E17.5, 10 mg/kg/d",14.2 ± 7.6 µg/g
same,Maternal serum concentration,"[1]; E17.5, 10 mg/kg/d",58.5 ± 34.5 µg/mL
same,Whole embryo concentration,"[1]; E17.5, 10 mg/kg/d",7.69 ± 2.92 µg/g
